What was measured:
[1] = Potentiation of amphotericin-induced cytotoxicity against human DU-145 cells over expressing CYP1B1 assessed as reversal of CYP1B1 mediated drug resistance at 5 uM after 48 hrs by MTT assay (Rvb = 43.25 +/- 1.7 nM)
[2] = Potentiation of amphotericin-induced cytotoxicity against human DU-145 cells over expressing CYP1B1 assessed as reversal of CYP1B1 mediated drug resistance at 1 uM after 48 hrs by MTT assay (Rvb = 43.25 +/- 1.7 nM)

## COc1ccc(OC)c2c1c(OC)cc1c(=O)cc(-c3ccc(-c4cn(CCCCCCCCOc5cccc6c5C(=O)N(C5CCC(=O)NC5=O)C6=O)nn4)cc3)oc12 (centres undefined)
[1]
  IC50: 37 nM

## COc1ccc(OC)c2c1c(OC)cc1c(=O)cc(-c3ccc(-c4cn(CCCCCCOc5cccc6c5C(=O)N(C5CCC(=O)NC5=O)C6=O)nn4)cc3)oc12 (centres undefined)
[1]
  IC50: 7 nM

## COc1ccc(OC)c2c1c(OC)cc1c(=O)cc(-c3ccc(-c4cn(CCOc5cccc6c5C(=O)N(C5CCC(=O)NC5=O)C6=O)nn4)cc3)oc12 (centres undefined)
[1]
  IC50: 24 nM

## COc1ccc(OC)c2c1c(OC)cc1c(=O)cc(-c3ccc(-c4cn(CCCCCOc5cccc6c5C(=O)N(C5CCC(=O)NC5=O)C6=O)nn4)cc3)oc12 (centres undefined)
[2]
  IC50: 28 nM

Source: BindingDB's records for doi:10.1016/j.ejmech.2019.112028 (Hunan Agricultural University, 2020)
